Test results published in article PMC12490239, “Combining BET inhibition with SMAC mimetics restricts tumor growth and triggers immune surveillance in preclinical cancer models” (Cell Reports Medicine, 2025).

Key:
Test in all cases: cells
Design in all cases: CellTiter-Glo 2.0 luminescence proliferation/viability assay, single agents, human tumour cell line panel
C32 = details: Homo sapiens, C32, 96 h; single agent; read-out: IC50 SMACm
Method: (§1) The effect of BETi, SMACm alone or in combination cell viability was determined using a 96-h CellTiter-Glo2.0 proliferation assay. Cells were seeded in assay plates and placed at 37°C with 5% CO2 for twenty-four hours before treatment. Compounds were added in triplicate in gradients of increasing concentrations, in case of SMACm ranging between 4.5 nM and 10 μM and in case of BETi between 1.4 nM and 3 μM. DMSO served as control. Cell viability was measured by luminescence analysis using luminescence read on Envision plate readers (PerkinElmer). An additional set of colorectal cancer cell lines was assayed with technical duplicates and experimental triplicates. Cell viability was measured by luminescence analysis using luminescence read on Tecan Plate reader. The effects of drug combinations were analyzed using the Bliss Independence Model.[34] Synergy score was calculated by the average of 3 highest and 3 lowest BLISS Gaps between predicted and measured POC (Percentage of Control) values. To investigate the synergistic interaction between BI 894999 (hereafter, BETi) and BI 891065 (hereafter, SMACm), we evaluated the in vitro anti-tumor effect of the single agents or the combination in a large panel of 151 cancer cell lines of different tissue origin: CRC, gastric cancer, non-small cell lung cancer (NSCLC), and pancreatic carcinoma (Figures 1C–1F). As a mono-agent, SMACm was able to inhibit cell proliferation only in a limited number of tested cell lines (4%, Table S2). Most of the cell lines responded to inhibition by BETi, with sensitivity ranging from 10 to 100 nM (Figure 1C). Bliss Gap analysis, performed to analyze the effect of the BETi+SMACm combination on tumor cell growth (Figures 1D–1F), unveiled potent synergistic activity across the cell models tested (Figure 1E), independent of tumor type (Figure 1F).  Figure 1 The combinatorial effect of BI 894999 and BI 891065 across a panel of human tumor cell lines (A) Selectivity and potency profiles of BI 891065. Top left, structure of BI 891065. Top right, IC50 values for BI 891065 inhibition of cIAP1, cIAP2, and XIAP. Bottom, physicochemical properties of […]. (B) WES (Simple Western System) analysis of cIAP1, cIAP2, and XIAP levels upon treatment of HT-29 cells with indicated concentrations of BI 891065 for 6 h (C) IC50 values determined in cell proliferation assays (n = 151) individually for BETi BI 894999 and SMACm BI 891065. Each point represents a cell line tested. (D) Example of proliferation assay for synergy analysis in LoVo cell line; shown is combination plate map matrix and the cell growth inhibition (CGI) at the indicated concentrations; CGI values < 100%: tumor cell growth, CGI 100%: tumor cell stasis, and CGI > 100%: tumor cell killing. (E) Synergy scores across the tested panel of cell lines obtained using Bliss synergy analysis. (F) Violin plots showing the synergy scores for BETi and SMACm combination across indications. N is the number of cell lines tested in each indication group.

COCM1 = details: CoCM-1, 96 h; single agent; read-out: IC50 SMACm
Method: as §1

Gp2D = details: GP2d, 96 h; single agent; read-out: IC50 SMACm
Method: as §1

HCA24 = details: 96 h; single agent; read-out: IC50 SMACm
Method: as §1

HLC-1 = details: 96 h; single agent; read-out: IC50 SMACm
Method: as §1

HPAF-II = details: Homo sapiens, HPAF-II, 96 h; single agent; read-out: IC50 SMACm
Method: as §1

KE-39 = details: 96 h; single agent; read-out: IC50 SMACm
Method: as §1

KM12 = details: Homo sapiens, KM12, 96 h; single agent; read-out: IC50 SMACm
Method: as §1

KP-2 = details: 96 h; single agent; read-out: IC50 SMACm
Method: as §1

KP-4 = details: Homo sapiens, KP-4, 96 h; single agent; read-out: IC50 SMACm
Method: as §1

LIM2551 = details: 96 h; single agent; read-out: IC50 SMACm
Method: as §1

NCI-H2126 = details: Homo sapiens, NCI-H2126, 96 h; single agent; read-out: IC50 SMACm
Method: as §1

RERF-GC-1B = details: 96 h; single agent; read-out: IC50 SMACm
Method: as §1

SNU-216 = details: SNU-216, 96 h; single agent; read-out: IC50 SMACm
Method: as §1

SNU-324 = details: 96 h; single agent; read-out: IC50 SMACm
Method: as §1

SNU503 = details: 96 h; single agent; read-out: IC50 SMACm
Method: as §1

With `CN[C@@H](C)C(=O)Nc1ccc(-c2c(-c3cccnc3OC)nc3cc(C)ccn23)c(C#Cc2ccc3c(C)nccc3c2)n1` [SMACm, BI 891065] the IC50 (C32) was 1.09 µM, the IC50 (COCM1) was 7.58 µM and the IC50 (Gp2D) was 3.62 µM. The IC50 (HCA24) was 1.73 µM, the IC50 (HLC-1) was 5.83 µM and the IC50 (HPAF-II) was 4.64 µM. It also gave an IC50 (KE-39) of 3.86 µM, an IC50 (KM12) of 7.46 µM and an IC50 (KP-2) of 4.62 µM. It also gave an IC50 (KP-4) of 4.16 µM, an IC50 (LIM2551) of 2.25 µM and an IC50 (NCI-H2126) of 6.14 µM. For the same compound, the IC50 (RERF-GC-1B) was 4.29 µM, the IC50 (SNU-216) was 4.32 µM and the IC50 (SNU-324) was 4.7 µM. For the same compound, the IC50 (SNU503) was 5.23 µM.
